In ChEMBL document CHEMBL1133144, “Synthesis and structure-activity relationships of a new class of 1-oxacephem-based human chymase inhibitors” (Bioorg Med Chem Lett, 2000):

Key:
Chymase = molecular target: T1, Chymase (Homo sapiens, UniProt P23946); experiment: Inhibitory activity against human serine protease chymase
T1 sequence (P23946 whole entry): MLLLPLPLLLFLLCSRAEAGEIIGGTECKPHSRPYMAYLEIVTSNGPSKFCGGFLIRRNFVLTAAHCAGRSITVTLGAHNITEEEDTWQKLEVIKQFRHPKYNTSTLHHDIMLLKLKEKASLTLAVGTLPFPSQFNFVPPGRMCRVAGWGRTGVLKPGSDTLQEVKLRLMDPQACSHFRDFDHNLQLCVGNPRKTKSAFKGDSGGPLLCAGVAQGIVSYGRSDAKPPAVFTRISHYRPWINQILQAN

Neutrophil elastase = molecular target: T2, Neutrophil elastase (Homo sapiens, UniProt P08246); experiment: The compound was evaluated for the inhibitory activity against human neutrophil elastase
T2 sequence (P08246 whole entry): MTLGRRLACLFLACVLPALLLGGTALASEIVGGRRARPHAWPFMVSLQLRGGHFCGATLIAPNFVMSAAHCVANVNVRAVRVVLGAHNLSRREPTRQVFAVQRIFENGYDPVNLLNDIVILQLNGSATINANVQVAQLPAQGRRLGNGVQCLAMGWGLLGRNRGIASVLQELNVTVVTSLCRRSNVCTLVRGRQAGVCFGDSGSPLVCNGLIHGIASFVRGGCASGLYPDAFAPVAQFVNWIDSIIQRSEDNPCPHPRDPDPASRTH

Cathepsin G = molecular target: T3, Cathepsin G (Homo sapiens, UniProt P08311); experiment: The compound was evaluated for the inhibitory activity against cathepsin G
T3 sequence (P08311 whole entry): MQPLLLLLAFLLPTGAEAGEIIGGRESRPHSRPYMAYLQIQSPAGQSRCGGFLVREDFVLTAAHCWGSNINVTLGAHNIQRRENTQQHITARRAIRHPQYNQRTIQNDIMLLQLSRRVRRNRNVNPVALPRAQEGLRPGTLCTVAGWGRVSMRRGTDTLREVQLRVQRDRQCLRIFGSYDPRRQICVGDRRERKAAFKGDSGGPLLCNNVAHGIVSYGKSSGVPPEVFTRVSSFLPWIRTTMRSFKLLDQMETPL

Serine protease 1 = molecular target: T4, Serine protease 1 (Bos taurus, UniProt P00760); experiment: The compound was evaluated for the inhibitory activity against trypsin
T4 sequence (P00760 whole entry): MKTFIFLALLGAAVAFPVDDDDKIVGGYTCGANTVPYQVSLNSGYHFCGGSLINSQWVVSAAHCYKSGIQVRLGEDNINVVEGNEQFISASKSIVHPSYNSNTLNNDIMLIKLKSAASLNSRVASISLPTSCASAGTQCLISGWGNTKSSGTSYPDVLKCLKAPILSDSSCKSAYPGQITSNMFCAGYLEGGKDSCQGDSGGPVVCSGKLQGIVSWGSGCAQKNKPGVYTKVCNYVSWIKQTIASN

Plasminogen = Plasminogen (Homo sapiens, UniProt P00747); experiment: The compound was evaluated for the inhibitory activity against plasmin
Sequence of Plasminogen (P00747 97-580 limits assumed): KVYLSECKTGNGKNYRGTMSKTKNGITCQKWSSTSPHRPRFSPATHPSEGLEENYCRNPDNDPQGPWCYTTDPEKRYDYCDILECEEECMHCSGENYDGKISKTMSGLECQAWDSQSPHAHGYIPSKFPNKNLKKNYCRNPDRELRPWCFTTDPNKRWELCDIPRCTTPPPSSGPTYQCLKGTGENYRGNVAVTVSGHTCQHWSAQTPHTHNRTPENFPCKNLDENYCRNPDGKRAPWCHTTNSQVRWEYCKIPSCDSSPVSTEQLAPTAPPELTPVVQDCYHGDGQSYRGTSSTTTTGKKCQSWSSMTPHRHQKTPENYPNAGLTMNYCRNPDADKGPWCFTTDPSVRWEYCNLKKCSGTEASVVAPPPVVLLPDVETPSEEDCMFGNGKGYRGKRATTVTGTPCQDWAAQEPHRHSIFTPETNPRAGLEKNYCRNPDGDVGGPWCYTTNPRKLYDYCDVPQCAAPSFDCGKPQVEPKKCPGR
Sequence of Plasminogen (P00747 581-810 limits assumed): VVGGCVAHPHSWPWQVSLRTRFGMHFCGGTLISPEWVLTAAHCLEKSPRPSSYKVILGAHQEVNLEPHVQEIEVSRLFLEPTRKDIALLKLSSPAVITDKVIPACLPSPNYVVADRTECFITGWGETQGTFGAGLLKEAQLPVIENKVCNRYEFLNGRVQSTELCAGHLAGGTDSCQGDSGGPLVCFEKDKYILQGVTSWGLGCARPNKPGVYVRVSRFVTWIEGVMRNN

Prothrombin = Prothrombin (Homo sapiens, UniProt P00734); experiment: The compound was evaluated for the inhibitory activity against thrombin

CO[C@@]1(NC(=O)Cc2ccc(-c3ccccc3)cc2)C(=O)N2C(C(=O)OC(c3ccccc3)c3ccccc3)=C(CSc3nnnn3C)CO[C@@H]21
IC50 (Chymase): > 10000 nM

CO[C@@]1(NC(=O)Cc2ccc(Br)cc2)C(=O)N2C(C(=O)OC(c3ccccc3)c3ccccc3)=C(CSc3nnnn3C)CO[C@@H]21
IC50 (Chymase): 6800 nM

COc1ccc(C(=O)N[C@]2(OC)C(=O)N3C(C(=O)OC(c4ccccc4)c4ccccc4)=C(CSc4nnnn4C)CO[C@@H]32)cc1
IC50 (Chymase): > 10000 nM

COc1ccccc1C(=O)N[C@]1(OC)C(=O)N2C(C(=O)OCc3cccc(C)c3)=C(CSc3nncn3CC(=O)O)CO[C@@H]21
IC50 (Neutrophil elastase): > 10000 nM
IC50 (Cathepsin G): 230 nM
IC50 (Serine protease 1): 440 nM
IC50 (Plasminogen): > 10000 nM
IC50 (Prothrombin): 430 nM

CO[C@@]1(NC(=O)Cc2ccc(O)cc2)C(=O)N2C(C(=O)OCc3cccc(C)c3)=C(CCl)CO[C@@H]21
IC50 (Chymase): 150 nM

CO[C@@]1(NC(=O)Cc2ccc(O)cc2)C(=O)N2C(C(=O)OCc3cccc(C)c3)=C(CSc3nncn3C)CO[C@@H]21
IC50 (Chymase): 4000 nM

CO[C@@]1(NC(=O)Cc2ccc(O)cc2)C(=O)N2C(C(=O)N3CCCC3)=C(CSc3nnnn3C)CO[C@@H]21
IC50 (Chymase): > 10000 nM

CO[C@@]1(NC(=O)Cc2ccc(O)cc2)C(=O)N2C(C(=O)OCc3cccc(C)c3)=C(C)CO[C@@H]21
IC50 (Chymase): > 10000 nM

CO[C@@]1(NC(=O)c2ccccc2Cl)C(=O)N2C(C(=O)OC(c3ccccc3)c3ccccc3)=C(CSc3nnnn3C)CO[C@@H]21
IC50 (Chymase): 1700 nM
